Columns and labels:
Assay in all cases: Post-emergence test, weed control effect
Assay type in all cases: in vivo
Conditions in all cases: after 3 weeks
Veronica polita = tested on: Veronica polita
Outline: (§1)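 Score 0-10 (10 = completely dead, 1 = below 20%, 0 = no effect) from fresh-weight growth inhibition, read 3 weeks after a post-emergence spray. Greenhouse pot plants at 2-3 leaves; spray solution acetone/Tween-80/water with 80% vegetable oil methyl ester synergist at 1500 g/ha.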

Amaranthus retroflexus = tested on: Amaranthus retroflexus
Outline: as §1

Rorippa indica = tested on: Rorippa indica
Outline: as §1

Chenopodiaceae = tested on: Chenopodiaceae
Outline: as §1

Cc1nc2cc(-c3nnc(C(F)(F)F)cc3O)ccc2o1 [Compound 597]
10: weed control effect (activity level), Veronica polita (Veronica polita; Dose 3000 g/ha) | weed control effect (activity level), Amaranthus retroflexus (Amaranthus retroflexus; Dose 3000 g/ha) | weed control effect (activity level), Rorippa indica (Rorippa indica; Dose 3000 g/ha) | weed control effect (activity level), Chenopodiaceae (Chenopodiaceae; Dose 3000 g/ha)

Oc1cc(C(F)(F)F)nnc1-c1ccnn1CC(F)(F)F [Compound 831]
10: weed control effect (activity level), Veronica polita (Veronica polita; Dose 3000 g/ha) | weed control effect (activity level), Amaranthus retroflexus (Amaranthus retroflexus; Dose 3000 g/ha) | weed control effect (activity level), Rorippa indica (Rorippa indica; Dose 3000 g/ha) | weed control effect (activity level), Chenopodiaceae (Chenopodiaceae; Dose 3000 g/ha)

O=C(Oc1cc(C(F)(F)F)nnc1-c1ccc(C(F)(F)F)cc1)c1cccc(OC(F)(F)F)c1 [Compound 1-88]
10: weed control effect, Veronica polita (activity level) (Veronica polita; Dose 3000 g/ha) | weed control effect, Amaranthus retroflexus (activity level) (Amaranthus retroflexus; Dose 3000 g/ha) | weed control effect, Rorippa indica (activity level) (Rorippa indica; Dose 3000 g/ha) | weed control effect, Chenopodiaceae (activity level) (Chenopodiaceae; Dose 3000 g/ha)

O=S(=O)(Oc1cc(C(F)(F)F)nnc1-c1cccc(F)c1)c1ccc(Oc2ccccc2)nc1 [Compound 1-146]
10: weed control effect, Veronica polita (activity level) (Veronica polita; Dose 3000 g/ha) | weed control effect, Amaranthus retroflexus (activity level) (Amaranthus retroflexus; Dose 3000 g/ha) | weed control effect, Rorippa indica (activity level) (Rorippa indica; Dose 3000 g/ha) | weed control effect, Chenopodiaceae (activity level) (Chenopodiaceae; Dose 3000 g/ha)

Cc1ccc(-c2nnc(C(F)(F)F)cc2OC(=O)c2ccccc2C)cc1 [Compound 1-80]
10: weed control effect, Veronica polita (activity level) (Veronica polita; Dose 3000 g/ha) | weed control effect, Amaranthus retroflexus (activity level) (Amaranthus retroflexus; Dose 3000 g/ha) | weed control effect, Rorippa indica (activity level) (Rorippa indica; Dose 3000 g/ha) | weed control effect, Chenopodiaceae (activity level) (Chenopodiaceae; Dose 3000 g/ha)

Cc1ncoc1C(=O)Oc1cc(C(F)(F)F)nnc1-c1ccc(F)c(F)c1 [Compound 1-108]
10: weed control effect, Veronica polita (activity level) (Veronica polita; Dose 3000 g/ha) | weed control effect, Amaranthus retroflexus (activity level) (Amaranthus retroflexus; Dose 3000 g/ha) | weed control effect, Rorippa indica (activity level) (Rorippa indica; Dose 3000 g/ha) | weed control effect, Chenopodiaceae (activity level) (Chenopodiaceae; Dose 3000 g/ha)

Oc1cc(C(F)(F)F)nnc1-c1cc(Cl)cnc1F [Compound 998]
10: weed control effect (activity level), Veronica polita (Veronica polita; Dose 3000 g/ha) | weed control effect (activity level), Amaranthus retroflexus (Amaranthus retroflexus; Dose 3000 g/ha) | weed control effect (activity level), Rorippa indica (Rorippa indica; Dose 3000 g/ha) | weed control effect (activity level), Chenopodiaceae (Chenopodiaceae; Dose 3000 g/ha)

Cc1nc(F)ccc1-c1nnc(C(F)(F)F)cc1O [Compound 223]
10: weed control effect (activity level), Veronica polita (Veronica polita; dose 2000 g/ha) | weed control effect (activity level), Amaranthus retroflexus (Amaranthus retroflexus; dose 2000 g/ha) | weed control effect (activity level), Rorippa indica (Rorippa indica; dose 2000 g/ha) | weed control effect (activity level), Chenopodiaceae (Chenopodiaceae; dose 2000 g/ha)

Oc1cc(C(F)(F)F)nnc1-c1ccc(F)cc1C(F)(F)F [Compound 764]
10: weed control effect (activity level), Veronica polita (Veronica polita; Dose 3000 g/ha) | weed control effect (activity level), Amaranthus retroflexus (Amaranthus retroflexus; Dose 3000 g/ha) | weed control effect (activity level), Rorippa indica (Rorippa indica; Dose 3000 g/ha) | weed control effect (activity level), Chenopodiaceae (Chenopodiaceae; Dose 3000 g/ha)

CC(C)COC(=S)Oc1cc(C(F)(F)F)nnc1-c1ccc(Cl)cc1Cl [Compound 1-158]
10: weed control effect, Veronica polita (activity level) (Veronica polita; Dose 3000 g/ha) | weed control effect, Amaranthus retroflexus (activity level) (Amaranthus retroflexus; Dose 3000 g/ha) | weed control effect, Rorippa indica (activity level) (Rorippa indica; Dose 3000 g/ha) | weed control effect, Chenopodiaceae (activity level) (Chenopodiaceae; Dose 3000 g/ha)

Oc1cc(C(F)(F)F)nnc1-c1cc(F)cc(/C=C/Cl)c1 [Compound 169]
10: weed control effect (activity level), Veronica polita (Veronica polita; dose 2000 g/ha) | weed control effect (activity level), Amaranthus retroflexus (Amaranthus retroflexus; dose 2000 g/ha) | weed control effect (activity level), Rorippa indica (Rorippa indica; dose 2000 g/ha) | weed control effect (activity level), Chenopodiaceae (Chenopodiaceae; dose 2000 g/ha)

O=S(=O)(Oc1cc(C(F)(F)F)nnc1-c1ccc(F)cc1)c1ccc(F)cc1 [Compound 1-134]
10: weed control effect, Veronica polita (activity level) (Veronica polita; Dose 3000 g/ha) | weed control effect, Amaranthus retroflexus (activity level) (Amaranthus retroflexus; Dose 3000 g/ha) | weed control effect, Rorippa indica (activity level) (Rorippa indica; Dose 3000 g/ha) | weed control effect, Chenopodiaceae (activity level) (Chenopodiaceae; Dose 3000 g/ha)

O=S(=O)(Oc1cc(C(F)(F)F)nnc1-c1ccc(F)cc1)c1ccc(Cl)cc1Cl [Compound 1-133]
10: weed control effect, Veronica polita (activity level) (Veronica polita; Dose 3000 g/ha) | weed control effect, Amaranthus retroflexus (activity level) (Amaranthus retroflexus; Dose 3000 g/ha) | weed control effect, Rorippa indica (activity level) (Rorippa indica; Dose 3000 g/ha) | weed control effect, Chenopodiaceae (activity level) (Chenopodiaceae; Dose 3000 g/ha)

O=S(=O)(Oc1cc(C(F)(F)F)nnc1-c1ccccc1)c1cc(Cl)c(Cl)cc1Cl [Compound 1-136]
10: weed control effect, Veronica polita (activity level) (Veronica polita; Dose 3000 g/ha) | weed control effect, Amaranthus retroflexus (activity level) (Amaranthus retroflexus; Dose 3000 g/ha) | weed control effect, Rorippa indica (activity level) (Rorippa indica; Dose 3000 g/ha) | weed control effect, Chenopodiaceae (activity level) (Chenopodiaceae; Dose 3000 g/ha)

Cc1ccc(S(=O)(=O)Oc2cc(C(F)(F)F)nnc2-c2ccc(F)cc2)cc1 [Compound 1-132]
10: weed control effect, Veronica polita (activity level) (Veronica polita; Dose 3000 g/ha) | weed control effect, Amaranthus retroflexus (activity level) (Amaranthus retroflexus; Dose 3000 g/ha) | weed control effect, Rorippa indica (activity level) (Rorippa indica; Dose 3000 g/ha) | weed control effect, Chenopodiaceae (activity level) (Chenopodiaceae; Dose 3000 g/ha)

Oc1cc(C(F)(F)F)nnc1-c1ccc(C2CC2)cc1 [Compound 24]
10: weed control effect (activity level), Veronica polita (Veronica polita; dose 2000 g/ha) | weed control effect (activity level), Amaranthus retroflexus (Amaranthus retroflexus; dose 2000 g/ha) | weed control effect (activity level), Rorippa indica (Rorippa indica; dose 2000 g/ha) | weed control effect (activity level), Chenopodiaceae (Chenopodiaceae; dose 2000 g/ha)

Cc1cncc(-c2nnc(C(F)(F)F)cc2O)c1 [Compound 211]
10: weed control effect (activity level), Veronica polita (Veronica polita; dose 2000 g/ha) | weed control effect (activity level), Amaranthus retroflexus (Amaranthus retroflexus; dose 2000 g/ha) | weed control effect (activity level), Rorippa indica (Rorippa indica; dose 2000 g/ha) | weed control effect (activity level), Chenopodiaceae (Chenopodiaceae; dose 2000 g/ha)

Oc1cc(C(F)(F)F)nnc1-c1cc2ccccc2s1 [Compound 594]
10: weed control effect (activity level), Veronica polita (Veronica polita; Dose 3000 g/ha) | weed control effect (activity level), Amaranthus retroflexus (Amaranthus retroflexus; Dose 3000 g/ha) | weed control effect (activity level), Rorippa indica (Rorippa indica; Dose 3000 g/ha) | weed control effect (activity level), Chenopodiaceae (Chenopodiaceae; Dose 3000 g/ha)

From patent publication US12568972B2, “Pyridazinol compounds and derivatives, preparation methods, herbicidal compositions and applications thereof” (Qingdao Kingagroot Chemical Compound Co., Ltd., priority 2018, dated 2026)
